Test results: patent US12528814B2, “Bifunctional degraders of interleukin-1 receptor-associated kinases and therapeutic use thereof” (NURIX THERAPEUTICS, INC., priority 2020, dated 2026)

Columns and labels:
IRAK4 [1] = target: T1, IRAK4 (Homo sapiens (Human), UniProt Q9NWZ3); test: IRAK4 Degradation HiBiT Assay; conditions: multiple runs, HiBiT-tagged Jurkat cells, 4 hrs; for Dmax: Jurkat, read-out: Cellular IRAK4 HiBiT: Dmax, Table 5; for DC50: read-out: Cellular IRAK4 HiBiT: DC50
Target sequence in this assay (Q9NWZ3 whole entry): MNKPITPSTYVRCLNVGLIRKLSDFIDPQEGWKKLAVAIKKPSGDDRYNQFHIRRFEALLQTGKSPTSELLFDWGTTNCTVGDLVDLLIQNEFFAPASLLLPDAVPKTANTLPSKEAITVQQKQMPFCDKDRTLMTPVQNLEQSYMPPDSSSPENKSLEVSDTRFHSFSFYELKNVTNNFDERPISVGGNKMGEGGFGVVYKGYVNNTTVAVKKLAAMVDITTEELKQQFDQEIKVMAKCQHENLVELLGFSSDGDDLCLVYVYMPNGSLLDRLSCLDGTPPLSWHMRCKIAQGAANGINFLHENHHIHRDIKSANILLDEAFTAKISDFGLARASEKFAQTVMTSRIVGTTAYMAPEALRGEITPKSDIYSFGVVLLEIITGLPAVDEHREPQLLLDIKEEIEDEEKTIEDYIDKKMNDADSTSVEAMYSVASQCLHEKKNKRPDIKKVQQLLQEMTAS

IRAK4 [2] = target: T1, IRAK4; test: IRAK4 Biochemical HTRF Kinase Assay; conditions: Table 5; multiple runs; read-out: IRAK4 HTRF biochemical: IC50
In short: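 HTRF KinEASE STK S1 format measuring IRAK4 phosphorylation of biotinylated peptide; reaction solution of 5 μM STK-S1, 10 mM ATP, 10 mM MgCl2 added (stock, to 10 μl final), 90 min at ambient temperature, detection 60 min. IC50 from sixteen-point duplicate curves by non-linear regression.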
Target sequence in this assay (Q9NWZ3 whole entry, species assumed): as the sequence (Q9NWZ3 whole entry) above

In the case of `CNc1cc(-c2ccc3cc(C#N)cnn23)ncc1-c1nnc([C@H]2CC[C@@H](NC(=O)CCCCCCCNc3ccc4c(c3)C(=O)N(C3CCC(=O)NC3=O)C4=O)CC2)s1` (stereo partly shown) [Example 112, N-((1s,4s)-4-(5-(6-(3-cyanopyrrolo[1,2-b]pyridazin-7-yl)-4-(methylamino)pyridin-3-yl)-1,3,4-thiadiazol-2-yl)cyclohexyl)-8-((2-(2,6-dioxopiperidin-3-yl)-1,3-dioxoisoindolin-5-yl)amino)octanamide], the Dmax (IRAK4 [1]) is reported as 57%, the DC50 (IRAK4 [1]; Table 5) is reported as 171 nM and the IC50 (IRAK4 [2]) is reported as 10.2 nM.

`CNc1cc(-c2ccc3cc(C#N)cnn23)ncc1-c1nnc([C@H]2CC[C@@H](NC(=O)[C@H]3C[C@@H](OCCNc4cccc5c4C(=O)N(C4CCC(=O)NC4=O)C5=O)C3)CC2)s1` (stereo partly drawn) [Example 113, (1s,3S)—N-((1s,4S)-4-(5-(6-(3-cyanopyrrolo[1,2-b]pyridazin-7-yl)-4-(methylamino)pyridin-3-yl)-1,3,4-thiadiazol-2-yl)cyclohexyl)-3-(2-((2-(2,6-dioxopiperidin-3-yl)-1,3-dioxoisoindolin-4-yl)amino)ethoxy)cyclobutane-1-carboxamide] gave a Dmax (IRAK4 [1]) of 76%, a DC50 (IRAK4 [1]; Table 5) of 32 nM and an IC50 (IRAK4 [2]) of 1.2 nM.

For `CNc1cc(-c2ccc3cc(C#N)cnn23)ncc1-c1nnc([C@H]2CC[C@@H](NC(=O)CCCCCNc3ccc4c(c3)C(=O)N(C3CCC(=O)NC3=O)C4=O)CC2)s1` (stereo partly shown) [Example 114, N-((1s,4s)-4-(5-(6-(3-cyanopyrrolo[1,2-b]pyridazin-7-yl)-4-(methylamino)pyridin-3-yl)-1,3,4-thiadiazol-2-yl)cyclohexyl)-6-((2-(2,6-dioxopiperidin-3-yl)-1,3-dioxoisoindolin-5-yl)amino)hexanamide], the Dmax (IRAK4 [1]) was 82%, the DC50 (IRAK4 [1]; Table 5) was 72.6 nM and the IC50 (IRAK4 [2]) was 2.9 nM.

For `CNc1cc(-c2ccc3cc(C#N)cnn23)ncc1-c1nnc([C@H]2CC[C@@H](NC(=O)CCOCCNc3ccc4c(c3)C(=O)N(C3CCC(=O)NC3=O)C4=O)CC2)s1` (stereo partly shown) [Example 115, N-((1s,4s)-4-(5-(6-(3-cyanopyrrolo[1,2-b]pyridazin-7-yl)-4-(methylamino)pyridin-3-yl)-1,3,4-thiadiazol-2-yl)cyclohexyl)-3-(2-((2-(2,6-dioxopiperidin-3-yl)-1,3-dioxoisoindolin-5-yl)amino)ethoxy)propanamide], the Dmax (IRAK4 [1]) was 78%, the DC50 (IRAK4 [1]; Table 5) was 44.7 nM and the IC50 (IRAK4 [2]) was 2.2 nM.

For `CNc1cc(-c2ccc3cc(C#N)cnn23)ncc1-c1nnc([C@H]2CC[C@@H](NC(=O)CCOCCNc3cccc4c3C(=O)N(C3CCC(=O)NC3=O)C4=O)CC2)s1` (stereo partly shown) [Example 116, N-((1s,4s)-4-(5-(6-(3-cyanopyrrolo[1,2-b]pyridazin-7-yl)-4-(methylamino)pyridin-3-yl)-1,3,4-thiadiazol-2-yl)cyclohexyl)-3-(2-((2-(2,6-dioxopiperidin-3-yl)-1,3-dioxoisoindolin-4-yl)amino)ethoxy)propanamide], the Dmax (IRAK4 [1]) was 60%, the DC50 (IRAK4 [1]; Table 5) was 46.3 nM and the IC50 (IRAK4 [2]) was 2.2 nM.

`CNc1cc(-c2ccc3cc(C#N)cnn23)ncc1-c1nnc([C@H]2CC[C@@H](NC(=O)CCOCCOCCOCCNc3cccc4c3C(=O)N(C3CCC(=O)NC3=O)C4=O)CC2)s1` (stereo partly shown) [Example 117, N-((1s,4s)-4-(5-(6-(3-cyanopyrrolo[1,2-b]pyridazin-7-yl)-4-(methylamino)pyridin-3-yl)-1,3,4-thiadiazol-2-yl)cyclohexyl)-3-(2-(2-(2-((2-(2,6-dioxopiperidin-3-yl)-1,3-dioxoisoindolin-4-yl)amino)ethoxy)ethoxy)ethoxy)propanamide] gave a Dmax (IRAK4 [1]) of 20%, a DC50 (IRAK4 [1]; Table 5) of 27.1 nM and an IC50 (IRAK4 [2]) of 1.2 nM.

`CNc1cc(-c2ccc3cc(C#N)cnn23)ncc1-c1nnc([C@H]2CC[C@H](NC(=O)C[C@H](NC(=O)[C@@H]3C[C@@H](O)CN3C(=O)[C@@H](NC(=O)C3(F)CC3)C(C)(C)C)c3ccc(-c4scnc4C)cc3)CC2)s1` [Example 118, (2S,4R)—N—((S)-3-(((1r,4S)-4-(5-(6-(3-cyanopyrrolo[1,2-b]pyridazin-7-yl)-4-(methylamino)pyridin-3-yl)-1,3,4-thiadiazol-2-yl)cyclohexyl)amino)-1-(4-(4-methylthiazol-5-yl)phenyl)-3-oxopropyl)-1-((S)-2-(1-fluorocyclopropane-1-carboxamido)-3,3-dimethylbutanoyl)-4-hydroxypyrrolidine-2-carboxamide] showed a Dmax (IRAK4 [1]) of 118%, a DC50 (IRAK4 [1]; Table 5) of 35.2 nM and an IC50 (IRAK4 [2]) of 1.4 nM.

With `CNc1cc(-c2ccc3cc(C#N)cnn23)ncc1-c1nnc([C@H]2CC[C@H](NC(=O)CCCOc3cc(-c4scnc4C)ccc3CNC(=O)[C@@H]3C[C@@H](O)CN3C(=O)[C@@H](NC(=O)C3(F)CC3)C(C)(C)C)CC2)s1` [Example 119, (2S,4R)—N-(2-(4-(((1r,4S)-4-(5-(6-(3-cyanopyrrolo[1,2-b]pyridazin-7-yl)-4-(methylamino)pyridin-3-yl)-1,3,4-thiadiazol-2-yl)cyclohexyl)amino)-4-oxobutoxy)-4-(4-methylthiazol-5-yl)benzyl)-1-((S)-2-(1-fluorocyclopropane-1-carboxamido)-3,3-dimethylbutanoyl)-4-hydroxypyrrolidine-2-carboxamide] the Dmax (IRAK4 [1]) was 117%, the DC50 (IRAK4 [1]; Table 5) was 116 nM and the IC50 (IRAK4 [2]) was 2.2 nM.

`CNc1cc(-c2ccc3cc(C#N)cnn23)ncc1-c1nnc([C@H]2CC[C@@H](NC(=O)CCCCCNc3cccc4c3C(=O)N(C3CCC(=O)NC3=O)C4=O)CC2)s1` (stereo partly shown) [Example 120, N-((1s,4s)-4-(5-(6-(3-cyanopyrrolo[1,2-b]pyridazin-7-yl)-4-(methylamino)pyridin-3-yl)-1,3,4-thiadiazol-2-yl)cyclohexyl)-6-((2-(2,6-dioxopiperidin-3-yl)-1,3-dioxoisoindolin-4-yl)amino)hexanamide] was tested, and the “Cellular IRAK4 HiBiT: Dmax” value (IRAK4 [1]; Table 5) was 32%, the DC50 (IRAK4 [1]; Table 5) was 33.4 nM and the IC50 (IRAK4 [2]) was 1.1 nM.

With `CNc1cc(-c2ccc3cc(C#N)cnn23)ncc1-c1nnc([C@H]2CC[C@@H](NC(=O)CCC(=O)N[C@H](C(=O)N3C[C@H](O)C[C@H]3C(=O)N[C@@H](C)c3ccc(-c4scnc4C)cc3)C(C)(C)C)CC2)s1` [Example 121, N1-((1s,4R)-4-(5-(6-(3-cyanopyrrolo[1,2-b]pyridazin-7-yl)-4-(methylamino)pyridin-3-yl)-1,3,4-thiadiazol-2-yl)cyclohexyl)-N4—((S)-1-((2S,4R)-4-hydroxy-2-(((S)-1-(4-(4-methylthiazol-5-yl)phenyl)ethyl)carbamoyl)pyrrolidin-1-yl)-3,3-dimethyl-1-oxobutan-2-yl)succinamide] the Dmax (IRAK4 [1]) was 95%, the DC50 (IRAK4 [1]; Table 5) was 1080 nM and the IC50 (IRAK4 [2]) was 1.2 nM.

With `CNc1cc(-c2ccc3cc(C#N)cnn23)ncc1-c1nnc(N2CCCC3(CN(Cc4ccc5c(c4)C(=O)N(C4CCC(=O)NC4=O)C5=O)C3)C2)s1` (stereo not shown) [Example 122, 7-(5-(5-(2-((2-(2,6-dioxopiperidin-3-yl)-1,3-dioxoisoindolin-5-yl)methyl)-2,6-diazaspiro[3.5]nonan-6-yl)-1,3,4-thiadiazol-2-yl)-4-(methylamino)pyridin-2-yl)pyrrolo[1,2-b]pyridazine-3-carbonitrile] the DC50 (IRAK4 [1]; Table 5) was > 9980 nM and the IC50 (IRAK4 [2]) was 1.1 nM.

With `CNc1cc(-c2ccc3cc(C#N)cnn23)ncc1-c1nnc(N2CCCC3(CN(Cc4ccc5c(c4)CN(C4CCC(=O)NC4=O)C5=O)C3)C2)s1` (stereo not shown) [Example 123, 7-(5-(5-(2-((2-(2,6-dioxopiperidin-3-yl)-1-oxoisoindolin-5-yl)methyl)-2,6-diazaspiro[3.5]nonan-6-yl)-1,3,4-thiadiazol-2-yl)-4-(methylamino)pyridin-2-yl)pyrrolo[1,2-b]pyridazine-3-carbonitrile] the DC50 (IRAK4 [1]; Table 5) was > 9980 nM and the IC50 (IRAK4 [2]) was 2.1 nM.
